Series [1] deals with T1, recombinant human GST-MDM2 (Homo sapiens, UniProt Q00987).
T1 construct: purchased R&D Systems
Kind of series: Fluorescence polarization binding of Cy5-labeled peptides to MDM2. The settings on record: 20 nM Cy5-labeled peptide, FP buffer pH 7.4, 30 min room temperature; performed twice in technical triplicates. For orientation: Polarisation of emitted light reports the rotation of a fluorescent probe.
Experimental: (B) Fluorescence polarization measurement of 20 nM Cy5-labeled peptides binding to recombinant human GST-MDM2.
20 nM of Cy5-labeled peptides were added to dilutions of human MDM2 (Recombinant Human GST -
MDM2/HDM2, R&D Systems) in FP buffer (50 mM tris(hydroxymethyl)aminomethane (Tris, Carl Roth),
150 mM sodium chloride (Sigma), 1 mM EDTA (Sigma), 0.01% (v/v) Tween20 (Sigma), pH 7.4) and
incubated for 30 min at room temperature. Fluorescence polarization was then measured in a Tecan
Spark plate reader (λex = 640 nm, λem = 670 nm). Measurements were performed twice in technical
triplicates. Data was then fit with Prism 10 (GraphPad) using non-linear regression with the following
solution to the quadratic binding equation 1 to obtain Kd:
𝐹𝑃 = 𝐹𝑃 + (𝐹𝑃 − 𝐹𝑃 ) ∗ 𝑐 + 𝑐 + 𝐾 − 𝑝𝑒𝑝𝑡𝑖𝑑𝑒 𝑀𝐷𝑀2 𝑑 𝑝𝑒𝑝𝑡𝑖𝑑𝑒 𝑀𝐷𝑀2

In another series the target is T2, CMKLR1 (Homo sapiens, UniProt Q99788).
T2 construct: expressed in transfected cells; host or cells: COS-7 (stably transfected, CMKLR1-eYFP + Δ6Gαqi4myr)
T2 sequence (Q99788 1-373): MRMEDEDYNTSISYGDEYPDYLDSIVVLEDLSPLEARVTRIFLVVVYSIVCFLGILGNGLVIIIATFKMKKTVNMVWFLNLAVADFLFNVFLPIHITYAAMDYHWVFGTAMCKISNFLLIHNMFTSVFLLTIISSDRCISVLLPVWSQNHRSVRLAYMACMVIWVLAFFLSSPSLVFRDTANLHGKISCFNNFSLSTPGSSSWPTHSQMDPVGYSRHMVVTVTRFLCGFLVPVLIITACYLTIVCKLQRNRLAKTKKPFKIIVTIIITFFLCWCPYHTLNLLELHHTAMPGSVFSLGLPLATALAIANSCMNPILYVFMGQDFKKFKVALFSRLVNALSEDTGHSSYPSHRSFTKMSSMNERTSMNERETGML
The experiment in a line: Ca2+ flux assay in COS-7_CMKLR1-eYFP_Δ6Gαqi4myr cells. The class given is cell-based. The settings on record: maximum signal over baseline normalized to peptide 1, at least two independent experiments in duplicate. On the technique in general: Calcium assays in cells follow changes in intracellular calcium, usually with a dye or a luminescent sensor.

A further series relates to HEK293_CMKLR1-eYFP cells. Kind of series: Resazurin based cell viability assay, peptides. As to conditions: 72 h incubation. How it is done: page 3: […] 15% FCS. Calcium flux assay Calcium flux assay was performed with cells expressing CMKLR1 and the chimeric G protein […]. The stably transfected COS-7_CMKLR1-eYFP_ […] were seeded at 25,000 cells per well into poly-ᴅ-lysine-coated 96-well plates (black μCLEAR, Greiner). The next day, cells were incubated with […] (Sigma), 20 mM 4-(2-hydroxyethyl)-1-piperazineethanesulfonic acid (HEPES, Sigma) in Hanks' Balanced […] This solution was replaced by assay buffer, and basal Ca2+ signal (λex = 485 nm, λem = 525 nm) was measured for 20 s with a Flexstation 3 plate reader (Molecular Devices). Peptide dilutions were added, and the Ca2+ response was measured for 40 s. The maximum signal over baseline was calculated and normalized to peptide 1 (N3-cC9). Non-linear regression was performed using Prism 10 (GraphPad). Experiments were performed in technical duplicates and at least twice. Cell viability assay HEK293 and HEK293_CMKLR1-eYFP cells were seeded at 15,000 cells per well into poly-ᴅ-lysine coated 96-well plates (black μCLEAR, Greiner). […] Cells were then washed and a resazurin-based cell viability assay was performed. […] (1:1) + 15% FBS without phenol red was added to the cells. […] using the fluorescence of resorufin (λex = 550 nm, λem = 595 nm). Data was normalized to cells incubated without peptide (100%) and cells treated with ethanol for 3 min before resazurin addition (0%). Experiments were performed in technical triplicates and at least twice. Fluorescence microscopy Peptide internalization was evaluated by fluorescence microscopy. […] the cells and incubated for 6 h. […] All shown microscopy images are representative of at least two independent experiments. […] Resazurin based cell viability assay of HEK293 and HEK293_CMKLR1-eYFP cells after 72 h incubation with the p53/MDM2 inhibitor Nutlin-3a. […] 100 50 2Cy 3Cy 4Cy 0 -8 -7 -6 -5 -4 […]], log Figure S4. Resazurin based cell viability assay of HEK293_CMKLR1-eYFP cells after 72 h incubation with the PMIγ peptides discussed in this work. Mean ± SEM from two independent experiments performed in triplicates. 15 […]

The target in the next series is T3, p53/MDM2 interaction (Homo sapiens, UniProt Q00987).
T3 construct: host or cells: HEK293 and HEK293_CMKLR1-eYFP
T3 sequence (Q00987 whole entry): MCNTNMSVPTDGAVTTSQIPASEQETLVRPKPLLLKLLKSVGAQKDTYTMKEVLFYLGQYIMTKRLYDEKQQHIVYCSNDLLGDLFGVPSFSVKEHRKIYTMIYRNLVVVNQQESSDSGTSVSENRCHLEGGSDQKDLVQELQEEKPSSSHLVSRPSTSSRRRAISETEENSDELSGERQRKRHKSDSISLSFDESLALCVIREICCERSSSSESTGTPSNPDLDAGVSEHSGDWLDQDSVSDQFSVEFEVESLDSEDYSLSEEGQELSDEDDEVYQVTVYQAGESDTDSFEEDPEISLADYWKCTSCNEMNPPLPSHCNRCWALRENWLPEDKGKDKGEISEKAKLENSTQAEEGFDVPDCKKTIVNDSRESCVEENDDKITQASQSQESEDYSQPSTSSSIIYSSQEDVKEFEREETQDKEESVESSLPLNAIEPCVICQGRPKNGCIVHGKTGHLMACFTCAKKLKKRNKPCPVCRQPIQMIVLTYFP
The experiment in a line: Inhibition of intracellular p53-HaloTag/NanoLuc-MDM2 BRET. The class given is cell-based. The settings on record: unlabeled peptides, 72 h. How it is done: Peptides were incubated on HEK293 and HEK293_CMKLR1-eYFP cells for 72 h, before BRET was measured. Nutlin-3a was incubated on HEK293 cells for 24 h before BRET was measured. Mean ± SEM from two independent experiments performed in duplicate. […]
dividing the Cy5-signal (670±30 nm) by the NanoLuc signal (450±20 nm). netBRET was calculated by subtracting the BRET ratio from cells which were incubated without peptide. To calculate the CMKLR1-specific effect, ΔBRET was calculated by subtracting the netBRET value obtained in cells without CMKLR1 from netBRET obtained in cells with CMKLR1. After the initial readout, a kinetic BRET displacement was performed with the same cells. For this, luminescence was measured every 22 s. After 3 min, 10 µM of the small molecule MDM2 antagonist Nutlin-3a (Sigma) was added to the cells and BRET was measured for another 7 min. Experiments were performed in technical duplicates and three independent times. […]
were then incubated with dilutions of unlabeled PMIγ -peptides for 72 h or with Nutlin-3a for 24 h. […] After 10 min incubation, luminescence was measured, and BRET ratio was calculated by dividing the TMR-signal (600±50 nm) by the NanoLuc signal (450±20 nm). netBRET was calculated and normalized to cells without peptide (100%) and cells which were not label ed with HaloTag TMR Ligand (0%). […]

The conditions of series [2]: printed as (reference) in the column measured D; calibration standard of the focal volume; source not shown; cited from earlier work. The text has this:
Descriptive statistics of fluorescence correlation spectroscopy (FCS) data from Figure 3. Measurements were obtained in stably transfected HEK293_CMKLR1-eYFP cells as well as endogenously CMKLR1-expressing HMEC-1 and THP-1 cells. SD – standard deviation, GSD – geometric SD factor, IQR – interquartile range applied mean ± SD geometric median (IQR) cell line N° name concentration [nM] mean *÷ GSD [nM] [nM] [nM] HEK29 ...

[3] abbreviates: read-out: pEC50 ± SEM (converted).

Where two headings read alike, the source gives them in different places. Where a SMILES comes first, the peptide text is derived from it. Bridges are numbered along the chain shown (N, C = ends). Roman numbers before positions name the chains, in order. Triazole bridges read from a SMILES are 1,4-linked. Where no end group is shown, it is not given here. [ ]: non-standard residue; d: D form. Lys(N3) = [N-]=[N+]=NCCCC[C@H](N)C(=O)O; Cit = NC(=O)NCCC[C@H](N)C(=O)O; d(hCys) = N[C@H](CCS)C(=O)O; PEG3 = NCCOCCOCCOCCC(=O)O; Pra = C#CC[C@H](N)C(=O)O

T1 sequence (Q00987 whole entry): as above

Regarding `C#CC[C@H](NC(=O)CCOCCOCCOCCNC(=O)[C@H](CCCNC(N)=O)NC(=O)[C@@H](NC(=O)[C@H](CCC(=O)O)NC(=O)CNC(=O)[C@@H](CCCNC(=N)N)NC(=O)[C@@H](CC(C)C)NC(=O)[C@@H](CC(C)C)NC(=O)[C@@H](C)NC(=O)[C@@H](CCC(=O)O)NC(=O)[C@@H](Cc1ccccc1)NC(=O)[C@@H](C)NC(=O)[C@@H](CC(C)C)NC(=O)[C@H]1CCCN1C(=O)[C@@H](Cc1c[nH]c2ccccc12)NC(=O)[C@@H](Cc1c[nH]c2ccccc12)NC(=O)[C@@H](CC(=O)O)NC(=O)CCOCCOCCOCCNC(=O)[C@@H](CCCNC(=N)N)NC(=O)[C@@H](CCCNC(=N)N)NC(=O)[C@@H](CCCNC(=N)N)NC(=O)[C@@H](CCCNC(=N)N)NC(=O)[C@@H](CCCNC(=N)N)NC(=O)[C@@H](CCCNC(=N)N)NC(=O)[C@@H](CCCNC(=N)N)NC(=O)[C@@H](CCCNC(=N)N)NC(=O)[C@@H](CCCNC(=N)N)NC(=O)CCOCCOCCOCCNC(=O)CCCCC[N+]1=C(C=CC=CC=C2N(C)c3ccc(S(=O)(=O)O)cc3C2(C)C)C(C)(C)c2cc(S(=O)(=O)[O-])ccc21)C(C)C)C(N)=O` [4Cy], in series [1], the Kd was 57.1 ± 21.8 nM.

For the molecule `CC(=O)N[C@@H](CCCCN=[N+]=[N-])C(=O)N[C@@H](Cc1ccc(O)cc1)C(=O)N[C@@H](Cc1ccccc1)C(=O)N1CCC[C@H]1C(=O)N[C@@H]1CCSSC[C@@H](C(=O)O)NC(=O)[C@H](Cc2ccccc2)NC(=O)[C@H](C)NC(=O)[C@H](Cc2ccccc2)NC(=O)[C@H](CCC(N)=O)NC1=O` [compound 1] (Ac-[Lys(N3)]YFP[d(hCys)]QFAFC-OH; disulfide 5-10), the EC50 at CMKLR1 (setting [3]) is 3.47 nM.

For the molecule `CC(=O)N[C@@H](CCCCn1cc(C[C@H](NC(=O)CCOCCOCCOCCNC(=O)[C@H](CCCNC(N)=O)NC(=O)[C@@H](NC(=O)[C@H](CCC(=O)O)NC(=O)CNC(=O)CNC(=O)[C@@H](CCCNC(=N)N)NC(=O)[C@@H](CC(C)C)NC(=O)[C@@H](CC(C)C)NC(=O)[C@@H](C)NC(=O)[C@@H](CCC(=O)O)NC(=O)[C@@H](Cc2ccccc2)NC(=O)[C@@H](C)NC(=O)[C@@H](CC(C)C)NC(=O)[C@H]2CCCN2C(=O)[C@@H](Cc2c[nH]c3ccccc23)NC(=O)[C@@H](Cc2c[nH]c3ccccc23)NC(=O)[C@H](N)CC(=O)O)C(C)C)C(N)=O)nn1)C(=O)N[C@@H](Cc1ccc(O)cc1)C(=O)N[C@@H](Cc1ccccc1)C(=O)N1CCC[C@H]1C(=O)N[C@@H]1CCSSC[C@@H](C(=O)O)NC(=O)[C@H](Cc2ccccc2)NC(=O)[C@H](C)NC(=O)[C@H](Cc2ccccc2)NC(=O)[C@H](CCC(N)=O)NC1=O` [compound 2] (I: H-[dD][dW][dW][dP][dL][dA][dF][dE][dA][dL][dL][dR]GGEV[Cit][PEG3][Pra]-NH2 / II: Ac-[Lys(N3)]YFP[d(hCys)]QFAFC-OH; triazole I:19-II:1; disulfide II:5-II:10; N-terminus assumed), in the series on HEK293_CMKLR1-eYFP cells, the cytotoxicity result is on record as “no signs of cytotoxicity”. Also, the “extent of competition of the p53/MDM2 interaction” value on p53/MDM2 interaction was “neither achieved full competition”. Besides, the “displacement of NanoLuc-MDM2/p53-HaloTag BRET” value at p53/MDM2 interaction (HEK293 versus HEK293_CMKLR1-eYFP) was “CMKLR1-selective effects at extracellular concentrations above 1 μM”.

Consider “I: GSVSHHHHHHGGHHHH[PEG3][dD][dW][dW][dP][dL][dA][dF][dE][dA][dL][dL][dR]GEV[Cit][PEG3][Pra]-NH2 / II: Ac-[Lys(N3)]YFP[d(hCys)]QFAFC (triazole I:35-II:1; disulfide II:5-II:10) [compound 3]”, for which the EC50 was 70.6 nM at CMKLR1 (read-out: EC50) and 70.8 nM on CMKLR1 (setting [3]). The cytotoxicity entry in the series with HEK293_CMKLR1-eYFP cells is “tolerated slightly worse at concentrations above 1 μM”.

For sulfo-cyanine5 [sulfo-Cy5], in series [2], the “D in solution, reference” value is 341.6 µm2/s.

As a reminder, the Kd is the constant that tells how readily two partners part at equilibrium.

Values taken from article PMC12814185, “Receptor-Mediated Shuttling of a D‑Amino Acid Peptide Achieves High Nanomolar Cytosolic Concentrations” (Journal of the American Chemical Society, 2025).
